Patent publication US20220088016A1, “CANCER TREATMENT USING MULTI-TARGETED KINASE INHIBITOR IN COMBINATION OF PROTEIN KINASE BIOMARKERS” (ZHEJIANG CROWNMAB BIOTECH CO. LTD., priority 2019, published 2022)

Assays:
Test in all cases: Kinase profiling
Type in all cases: binding
FLT3 (R834Q) = FLT3 (R834Q) (Homo sapiens, UniProt P36888, R834Q); conditions: read-out: % Ctrl @ 1000 nM
NIK = molecular target: T1, NIK (Homo sapiens, UniProt Q99558); conditions: read-out: % Ctrl @ 1000 nM
T1 construct: T7 phage fusion (said for most assays); made in house

PIK3CD = PIK3CD (Homo sapiens, UniProt O00329); conditions: read-out: % Ctrl @ 1000 nM
FLT3 (ITD, F691L) = test system: FLT3 (ITD, F691L)
PHKG2 = PHKG2 (Homo sapiens, UniProt P15735); conditions: read-out: % Ctrl @ 1000 nM
CSF1R = CSF1R (Homo sapiens, UniProt P07333); conditions: read-out: % Ctrl @ 1000 nM
ANKK1 = ANKK1 (Homo sapiens, UniProt Q8NFD2); conditions: read-out: % Ctrl @ 1000 nM
PIK3CA (Q546K) = PIK3CA (Q546K) (Homo sapiens, UniProt P42336, Q546K); conditions: read-out: % Ctrl @ 1000 nM
ACVRL1 = ACVRL1 (Homo sapiens, UniProt P37023); conditions: read-out: % Ctrl @ 1000 nM
TIE2 = TIE2 (Homo sapiens, UniProt Q02763); conditions: read-out: % Ctrl @ 1000 nM
GCN2 (Kin.Dom.2, S808G) = GCN2 (Kin.Dom.2, S808G) (Homo sapiens, UniProt Q9P2K8, S808G); conditions: read-out: % Ctrl @ 1000 nM
ROS1 = ROS1 (Homo sapiens, UniProt P08922); conditions: read-out: % Ctrl @ 1000 nM
SIK2 = SIK2 (Homo sapiens, UniProt Q9H0K1); conditions: read-out: % Ctrl @ 1000 nM
CLK3 = CLK3 (Homo sapiens, UniProt P49761); conditions: read-out: % Ctrl @ 1000 nM
[1] = molecular target: RSK1 (Kin.Dom.1-N-terminal) (Homo sapiens, UniProt Q15418); conditions: read-out: % Ctrl @ 1000 nM
PIP5K2B = PIP5K2B (Homo sapiens, UniProt P78356); conditions: read-out: % Ctrl @ 1000 nM
PKNB (M.tuberculosis) = PKNB (M.tuberculosis) (Mycobacterium tuberculosis, UniProt P9WI81); conditions: read-out: % Ctrl @ 1000 nM
FLT3 (D835Y) = FLT3 (D835Y) (Homo sapiens, UniProt P36888, D835Y); conditions: read-out: % Ctrl @ 1000 nM
ULK2 = ULK2 (Homo sapiens, UniProt Q8IYT8); conditions: read-out: % Ctrl @ 1000 nM
HASPIN = HASPIN (Homo sapiens, UniProt Q8TF76); conditions: read-out: % Ctrl @ 1000 nM
CASK = CASK (Homo sapiens, UniProt O14936); conditions: read-out: % Ctrl @ 1000 nM
WEE1 = WEE1 (Homo sapiens, UniProt P30291); conditions: read-out: % Ctrl @ 1000 nM
EPHB2 = EPHB2 (Homo sapiens, UniProt P29323); conditions: read-out: % Ctrl @ 1000 nM
ACVR2A = ACVR2A (Homo sapiens, UniProt P27037); conditions: read-out: % Ctrl @ 1000 nM
EGFR (T790M) = EGFR (T790M) (Homo sapiens, UniProt P00533, T790M); conditions: read-out: % Ctrl @ 1000 nM
MRCKA = molecular target: T2, MRCKA (Homo sapiens, UniProt Q5VT25); conditions: read-out: % Ctrl @ 1000 nM
T2 construct: T7 phage fusion (stated for most kinases of the panel only); made in house; host or cells: T7 phage in E. coli (BL21-derived) or HEK-293 cells

HPK1 = HPK1 (Homo sapiens, UniProt Q92918); conditions: read-out: % Ctrl @ 1000 nM
[2] = molecular target: ABL1 (Q252H)-phosphorylated (Homo sapiens, UniProt P00519, Q252H); conditions: read-out: % Ctrl @ 1000 nM
MET (M1250T) = molecular target: T3, MET (M1250T) (Homo sapiens, UniProt P08581, M1250T); conditions: read-out: % Ctrl @ 1000 nM
T3 construct: T7 phage fusion (stated for most kinases of the panel only); made in house; host or cells: T7 phage in E. coli (BL21-derived) or HEK-293 cells

PRKCE = PRKCE (Homo sapiens, UniProt Q02156); conditions: read-out: % Ctrl @ 1000 nM
GRK7 = GRK7 (Homo sapiens, UniProt Q8WTQ7); conditions: read-out: % Ctrl @ 1000 nM
TNNI3K = TNNI3K (Homo sapiens, UniProt Q59H18); conditions: read-out: % Ctrl @ 1000 nM
[3] = molecular target: RSK4 (Kin.Dom.1-N-terminal) (Homo sapiens, UniProt Q9UK32); conditions: read-out: % Ctrl @ 1000 nM
EGFR (L858R) = EGFR (L858R) (Homo sapiens, UniProt P00533, L858R); conditions: read-out: % Ctrl @ 1000 nM
MARK2 = MARK2 (Homo sapiens, UniProt Q7KZI7); conditions: read-out: % Ctrl @ 1000 nM
CDKL1 = CDKL1 (Homo sapiens, UniProt Q00532); conditions: read-out: % Ctrl @ 1000 nM
STK33 = STK33 (Homo sapiens, UniProt Q9BYT3); conditions: read-out: % Ctrl @ 1000 nM
WNK1 = WNK1 (Homo sapiens, UniProt Q9H4A3); conditions: read-out: % Ctrl @ 1000 nM

ACVR2A, sequence (P27037 20-513): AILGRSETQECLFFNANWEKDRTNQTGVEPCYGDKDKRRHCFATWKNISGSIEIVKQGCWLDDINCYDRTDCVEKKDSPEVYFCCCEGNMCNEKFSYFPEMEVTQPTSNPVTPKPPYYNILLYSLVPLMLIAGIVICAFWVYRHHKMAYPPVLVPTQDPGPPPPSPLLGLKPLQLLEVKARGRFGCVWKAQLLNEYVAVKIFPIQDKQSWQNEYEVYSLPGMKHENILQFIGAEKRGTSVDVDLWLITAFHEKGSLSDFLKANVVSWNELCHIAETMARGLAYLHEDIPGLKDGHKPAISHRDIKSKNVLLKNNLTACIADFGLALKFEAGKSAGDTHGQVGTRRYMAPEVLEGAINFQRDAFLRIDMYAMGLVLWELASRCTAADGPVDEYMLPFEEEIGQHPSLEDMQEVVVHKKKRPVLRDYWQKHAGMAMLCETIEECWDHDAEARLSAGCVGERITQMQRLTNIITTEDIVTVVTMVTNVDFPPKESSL
CLK3, sequence (P49761 whole entry): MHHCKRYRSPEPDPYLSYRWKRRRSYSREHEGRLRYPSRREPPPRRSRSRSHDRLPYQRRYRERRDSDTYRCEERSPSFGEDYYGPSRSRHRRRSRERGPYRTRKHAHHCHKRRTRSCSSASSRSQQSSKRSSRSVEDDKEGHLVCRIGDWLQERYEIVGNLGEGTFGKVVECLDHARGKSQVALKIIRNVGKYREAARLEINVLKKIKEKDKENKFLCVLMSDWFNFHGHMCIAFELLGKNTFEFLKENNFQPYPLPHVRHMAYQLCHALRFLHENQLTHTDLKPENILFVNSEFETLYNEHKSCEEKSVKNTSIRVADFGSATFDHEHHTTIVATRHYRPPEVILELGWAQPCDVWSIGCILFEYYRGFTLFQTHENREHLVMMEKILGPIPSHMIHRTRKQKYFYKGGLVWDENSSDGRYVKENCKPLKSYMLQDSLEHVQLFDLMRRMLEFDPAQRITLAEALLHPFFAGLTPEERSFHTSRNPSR
TIE2, sequence (Q02763 23-1124): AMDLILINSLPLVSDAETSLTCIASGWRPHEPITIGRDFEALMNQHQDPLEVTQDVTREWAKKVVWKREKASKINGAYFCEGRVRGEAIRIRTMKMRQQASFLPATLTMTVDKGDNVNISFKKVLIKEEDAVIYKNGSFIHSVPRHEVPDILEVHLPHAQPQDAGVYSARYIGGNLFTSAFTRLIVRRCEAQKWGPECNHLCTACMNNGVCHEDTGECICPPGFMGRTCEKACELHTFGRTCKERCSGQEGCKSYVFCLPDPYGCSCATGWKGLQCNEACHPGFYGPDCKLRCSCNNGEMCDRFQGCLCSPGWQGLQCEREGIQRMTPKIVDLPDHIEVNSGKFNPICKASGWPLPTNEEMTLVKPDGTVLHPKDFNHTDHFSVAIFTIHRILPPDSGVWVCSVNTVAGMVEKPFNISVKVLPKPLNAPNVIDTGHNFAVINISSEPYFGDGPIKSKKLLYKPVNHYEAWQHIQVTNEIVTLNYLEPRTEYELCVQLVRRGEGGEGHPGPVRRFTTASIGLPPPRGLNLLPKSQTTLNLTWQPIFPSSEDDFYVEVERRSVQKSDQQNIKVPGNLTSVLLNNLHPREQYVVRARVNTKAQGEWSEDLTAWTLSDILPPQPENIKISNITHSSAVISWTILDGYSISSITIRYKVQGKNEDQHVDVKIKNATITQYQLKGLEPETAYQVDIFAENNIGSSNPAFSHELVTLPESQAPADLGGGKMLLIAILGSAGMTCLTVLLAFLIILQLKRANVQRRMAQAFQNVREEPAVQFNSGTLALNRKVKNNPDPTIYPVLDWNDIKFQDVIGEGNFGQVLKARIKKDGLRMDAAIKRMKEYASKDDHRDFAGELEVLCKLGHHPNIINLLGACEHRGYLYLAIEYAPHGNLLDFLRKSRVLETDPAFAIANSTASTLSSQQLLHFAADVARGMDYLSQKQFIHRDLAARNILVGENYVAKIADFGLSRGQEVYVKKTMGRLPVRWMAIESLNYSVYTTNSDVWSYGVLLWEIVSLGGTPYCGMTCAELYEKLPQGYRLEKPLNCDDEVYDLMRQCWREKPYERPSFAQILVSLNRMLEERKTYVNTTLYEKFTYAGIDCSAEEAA
EGFR (L858R), sequence (P00533 25-1210 L858R): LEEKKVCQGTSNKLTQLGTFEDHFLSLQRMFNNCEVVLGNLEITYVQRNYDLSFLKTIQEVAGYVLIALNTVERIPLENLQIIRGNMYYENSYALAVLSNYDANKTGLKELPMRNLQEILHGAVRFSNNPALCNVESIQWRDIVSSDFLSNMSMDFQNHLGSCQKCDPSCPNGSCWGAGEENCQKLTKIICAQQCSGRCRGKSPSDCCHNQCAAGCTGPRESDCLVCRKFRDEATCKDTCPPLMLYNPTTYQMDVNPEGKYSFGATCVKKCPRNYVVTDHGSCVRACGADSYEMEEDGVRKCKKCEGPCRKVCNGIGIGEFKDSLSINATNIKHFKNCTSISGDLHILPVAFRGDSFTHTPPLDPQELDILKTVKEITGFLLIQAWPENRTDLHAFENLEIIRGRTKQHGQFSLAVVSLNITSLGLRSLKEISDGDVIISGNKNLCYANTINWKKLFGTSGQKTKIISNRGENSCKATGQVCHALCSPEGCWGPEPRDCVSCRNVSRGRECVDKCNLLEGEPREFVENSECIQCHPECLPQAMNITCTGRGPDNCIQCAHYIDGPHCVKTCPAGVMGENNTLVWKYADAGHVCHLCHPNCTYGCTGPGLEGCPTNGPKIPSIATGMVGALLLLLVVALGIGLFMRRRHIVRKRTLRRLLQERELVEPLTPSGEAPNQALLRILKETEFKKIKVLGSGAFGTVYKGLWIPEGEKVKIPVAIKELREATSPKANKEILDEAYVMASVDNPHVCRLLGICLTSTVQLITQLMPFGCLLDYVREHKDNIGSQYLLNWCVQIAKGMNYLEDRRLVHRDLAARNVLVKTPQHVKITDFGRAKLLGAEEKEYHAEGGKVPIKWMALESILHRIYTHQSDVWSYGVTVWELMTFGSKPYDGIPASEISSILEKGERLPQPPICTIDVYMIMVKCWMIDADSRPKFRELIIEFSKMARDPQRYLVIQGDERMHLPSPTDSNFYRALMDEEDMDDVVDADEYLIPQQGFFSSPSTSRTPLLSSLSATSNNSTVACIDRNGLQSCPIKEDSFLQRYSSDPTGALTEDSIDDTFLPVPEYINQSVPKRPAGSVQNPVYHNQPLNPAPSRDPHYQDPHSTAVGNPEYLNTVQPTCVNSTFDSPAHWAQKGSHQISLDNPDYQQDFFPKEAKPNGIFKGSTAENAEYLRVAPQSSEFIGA
EPHB2, sequence (P29323 19-1055): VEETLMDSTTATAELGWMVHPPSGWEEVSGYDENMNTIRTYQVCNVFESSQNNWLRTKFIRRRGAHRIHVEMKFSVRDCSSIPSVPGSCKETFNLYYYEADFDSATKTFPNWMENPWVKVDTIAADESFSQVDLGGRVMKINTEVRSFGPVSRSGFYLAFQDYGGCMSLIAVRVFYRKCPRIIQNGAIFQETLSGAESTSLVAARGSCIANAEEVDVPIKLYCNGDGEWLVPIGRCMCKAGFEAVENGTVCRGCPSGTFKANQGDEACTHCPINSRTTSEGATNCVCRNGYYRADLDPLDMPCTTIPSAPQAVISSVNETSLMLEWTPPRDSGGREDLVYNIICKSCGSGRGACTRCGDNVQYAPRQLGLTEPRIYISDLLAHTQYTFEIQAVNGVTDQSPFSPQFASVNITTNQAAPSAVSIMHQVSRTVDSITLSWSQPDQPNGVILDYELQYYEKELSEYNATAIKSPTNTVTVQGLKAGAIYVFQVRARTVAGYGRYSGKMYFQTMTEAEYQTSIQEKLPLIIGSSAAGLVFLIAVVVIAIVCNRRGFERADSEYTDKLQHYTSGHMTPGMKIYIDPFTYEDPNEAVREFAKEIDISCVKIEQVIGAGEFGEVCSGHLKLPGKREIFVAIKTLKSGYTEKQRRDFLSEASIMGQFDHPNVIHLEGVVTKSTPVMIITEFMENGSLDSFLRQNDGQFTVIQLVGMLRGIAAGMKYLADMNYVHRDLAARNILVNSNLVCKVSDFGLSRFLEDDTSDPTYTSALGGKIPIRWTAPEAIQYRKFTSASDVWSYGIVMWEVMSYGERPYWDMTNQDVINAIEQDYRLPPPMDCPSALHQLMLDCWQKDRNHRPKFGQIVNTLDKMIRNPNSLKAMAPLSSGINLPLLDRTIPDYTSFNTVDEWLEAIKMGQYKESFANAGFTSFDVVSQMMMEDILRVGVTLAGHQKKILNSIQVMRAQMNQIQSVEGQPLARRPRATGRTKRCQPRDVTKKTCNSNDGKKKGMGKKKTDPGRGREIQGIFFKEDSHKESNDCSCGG
STK33, sequence (Q9BYT3 whole entry): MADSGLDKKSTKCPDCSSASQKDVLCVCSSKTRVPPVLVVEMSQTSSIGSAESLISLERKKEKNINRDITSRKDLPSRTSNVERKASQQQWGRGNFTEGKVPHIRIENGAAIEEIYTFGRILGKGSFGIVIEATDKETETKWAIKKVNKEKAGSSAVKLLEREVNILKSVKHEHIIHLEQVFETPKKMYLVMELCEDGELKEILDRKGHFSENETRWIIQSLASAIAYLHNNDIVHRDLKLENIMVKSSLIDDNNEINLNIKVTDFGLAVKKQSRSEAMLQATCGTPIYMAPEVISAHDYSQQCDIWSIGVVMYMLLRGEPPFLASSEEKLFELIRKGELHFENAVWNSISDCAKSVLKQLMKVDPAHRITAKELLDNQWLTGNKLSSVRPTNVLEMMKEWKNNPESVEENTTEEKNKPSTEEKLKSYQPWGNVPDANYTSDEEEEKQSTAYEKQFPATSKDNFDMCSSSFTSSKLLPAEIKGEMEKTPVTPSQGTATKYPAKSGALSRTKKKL

**Q.** With Cc1cc(Oc2cc(NC(=O)C3CC3)ncn2)ccc1NC(=O)Nc1ccc(Cl)c(C(F)(F)F)c1 [CBT-102] as the compound, how does the remaining activity at 1 µM (FLT3 (R834Q)) read?
**A.** 97%

**Q.** What about the remaining activity at 1 µM (NIK) of the same compound?
**A.** 100%

**Q.** What about the remaining activity at 1 µM (PIK3CD) of the same compound?
**A.** 100%

**Q.** And the “% Ctrl @ 1000 nM” value (FLT3 (ITD, F691L))?
**A.** 86%

**Q.** And the remaining activity at 1 µM (PHKG2)?
**A.** 87%

**Q.** What about the remaining activity at 1 µM (CSF1R) of the same compound?
**A.** 0%

**Q.** And the remaining activity at 1 µM (ANKK1)?
**A.** 100%

**Q.** What about the remaining activity at 1 µM (PIK3CA (Q546K)) of the same compound?
**A.** 100%

**Q.** What about the remaining activity at 1 µM (ACVRL1) of the same compound?
**A.** 67%

**Q.** And the remaining activity at 1 µM (TIE2)?
**A.** 16%

**Q.** And the remaining activity at 1 µM (GCN2 (Kin.Dom.2, S808G))?
**A.** 100%

**Q.** And the remaining activity at 1 µM (ROS1)?
**A.** 63%

**Q.** What about the remaining activity at 1 µM (SIK2) of the same compound?
**A.** 100%

**Q.** What about the remaining activity at 1 µM (CLK3) of the same compound?
**A.** 100%

**Q.** What about the remaining activity at 1 µM [1] of the same compound?
**A.** 100%

**Q.** What about the remaining activity at 1 µM (PIP5K2B) of the same compound?
**A.** 99%

**Q.** And the remaining activity at 1 µM (PKNB (M.tuberculosis))?
**A.** 100%

**Q.** What about the remaining activity at 1 µM (FLT3 (D835Y)) of the same compound?
**A.** 61%

**Q.** What about the remaining activity at 1 µM (ULK2) of the same compound?
**A.** 98%

**Q.** And the remaining activity at 1 µM (HASPIN)?
**A.** 81%

**Q.** What about the remaining activity at 1 µM (CASK) of the same compound?
**A.** 98%

**Q.** And the remaining activity at 1 µM (WEE1)?
**A.** 92%

**Q.** What about the remaining activity at 1 µM (EPHB2) of the same compound?
**A.** 44%

**Q.** And the remaining activity at 1 µM (ACVR2A)?
**A.** 100%

**Q.** What about the remaining activity at 1 µM (EGFR (T790M)) of the same compound?
**A.** 94%

**Q.** What about the remaining activity at 1 µM (MRCKA) of the same compound?
**A.** 91%

**Q.** And the remaining activity at 1 µM (HPK1)?
**A.** 23%

**Q.** And the remaining activity at 1 µM [2]?
**A.** 82%

**Q.** And the remaining activity at 1 µM (MET (M1250T))?
**A.** 84%

**Q.** And the remaining activity at 1 µM (PRKCE)?
**A.** 99%

**Q.** And the remaining activity at 1 µM (GRK7)?
**A.** 100%

**Q.** And the remaining activity at 1 µM (TNNI3K)?
**A.** 31%

**Q.** What about the remaining activity at 1 µM [3] of the same compound?
**A.** 100%

**Q.** And the remaining activity at 1 µM (EGFR (L858R))?
**A.** 87%

**Q.** What about the remaining activity at 1 µM (MARK2) of the same compound?
**A.** 76%

**Q.** What about the remaining activity at 1 µM (CDKL1) of the same compound?
**A.** 65%

**Q.** What about the remaining activity at 1 µM (STK33) of the same compound?
**A.** 63%

**Q.** And the remaining activity at 1 µM (WNK1)?
**A.** 87%
